Laboratory results as given in patent publication US11938098B2, “Method for killing HIV-infected cells using Bcl-2 inhibitors” (Mayo Foundation for Medical Education and Research, priority 2015, dated 2024).

Key:
[1] = test system: Jurkat T cells stably expressing eGFP; test: Apoptosis and marker loss in Jurkat T cells stably expressing eGFP treated with CPT; type: cell-based
Procedure: FIGS. 12A-12G. Apoptotic cell death is associated with loss of protein and mRNA markers. Jurkat T cells stably expressing eGFP were treated with DMSO or CPT and assessed for cell viability by ATP content (FIG. 12A) and light scatter (FIG. 12B) over time. FIG. 12C, Expression of eGFP was measured by flow cytometry. FIG. 12D, Actin mRNA expression was assessed by qRT-PCR and expressed as mean Ct values normalized to baseline DMSO control. FIGS. 12E-12G, Cell death was assessed by active-caspase 3 expression (FIG. 12E), TUNEL (FIG. 12F), and LIVE/DEAD viability stain (FIG. 12G) and compared between eGFP positive and eGFP negative cells. FIG. 12A-12D values represent mean (range) of two independent experiments. FIGS. 12E-12G are representative of two independent experiments.
If BCL-2 neutralizes Casp8p41, then antagonizing BCL-2 should augment Casp8p41-induced killing, including when Casp8p41 is generated by latently HIV infected cells that reactivate the virus. Before testing this possibility, whether select markers (protein or nucleic acid based) remain detectable was first assessed when the cell of interest is undergoing death. Jurkat T cells stably expressing eGFP were treated with vehicle control or the cytotoxic quinolone alkaloid CPT to induce apoptosis, then examined for expression of eGFP (as a prototypic cytoplasmic protein) and actin mRNA (as a prototypic mRNA) over time.

[2] = cited from earlier work
[3] = test system: Primary CD4 T cells from ART-suppressed HIV positive patients; test: Viability by trypan blue exclusion of CD4 T cells from ART-suppressed HIV positive patients; type: cell-based, human; details: bulk primary CD4 T cells from HIV infected ART suppressed patients; 1 μM; 24 hours
Procedure: FIGS. 11A-11D. […] FIG. 11A, Jurkat T cells pretreated with increasing concentrations of venetoclax or diluent DMSO were transfected with EGFP-Casp8p41, vector control, or no DNA, and assayed for cell death by TUNEL. Data are representative of three independent experiments. FIG. 11B, Primary CD4 T cells from seven uninfected donors were treated with venetoclax (1 μM) or diluent, and assayed for cell viability by flow cytometry over 5 days. FIG. 11C, Primary CD4 T cells from four uninfected donors were stimulated with phytohemagglutinin (2 μg/mL) in the presence of venetoclax (1 μM) or diluent and assayed for proliferation by CFSE staining. FIG. 11D, Primary CD4 T cells from seven ART-suppressed HIV positive patients were treated with venetoclax (1 μM) or DMSO control for 24 hours and assessed for viability by trypan blue exclusion.

Jurkat T cells = test: TUNEL cell death in Jurkat T cells transfected with EGFP-Casp8p41, vector control or no DNA; type: cell-based; details: Jurkat cells expressing eGFP-Casp8p41, 1 μM
Procedure: HEK 293T cells were transfected using Lipofectamine (Invitrogen, Carlsbad, Calif.) according to manufacturer's protocol. Jurkat cells were transfected using a square wave electroporator (BXT, San Diego, Calif.) at 320 V. Immunophenotyping of T cell subsets was performed using multicolor flow cytometry with monoclonal antibodies to human CD3 (Alexa700, BD Pharmingen), CD4 (FITC, BD Pharmingen), CD8 (Pacific Blue, BD Pharmingen), CD27 (PE, BD Pharmingen), and CD45RO (ECD, Beckman Coulter). Central memory T cells (TCM) were defined as CD3^+CD4^+CD27^+CD45RO^+, and effector memory T cells (TEM) were defined as CD3^+CD4^+CD27^−CD45RO^+/− (Brenchley et al., J. Exp. Med., 200:749-759 (2004)). Intracellular expression of Casp8p41 was assessed as described elsewhere (Cummins et al., AIDS Res. Hum. Retroviruses, 30:476-479 (2014)). Cell death was measured using LIVE/DEAD® Fixable Aqua dead cell stain (Invitrogen) or TUNEL (Roche) according to manufacturers' protocols. Cell proliferation was measured using a CellTrace™ CFSE Cell Proliferation Kit (Life Technologies) according to manufacturer's protocol. FACS analysis was performed on either a FACScan or LSRII flow cytometer (BD Biosciences) based on multiparameter needs. FACS data were analyzed using FlowJo software (Tree Star Inc).

[4] = test system: Primary CD4 T cells from uninfected donors; test: Viability of primary uninfected CD4 T cells by flow cytometry; type: cell-based, human; details: N=7, 1 μM, Day 5
Excerpt: (§1) Jurkat cells and HEK 293T cells were obtained from American Type Culture Collection (Manassas, Va.). Jurkat/Bcl-2 cells were created by transfecting Jurkat with a pcDNA-3 encoding Bcl-2 (obtained from Dr. Stan Korsmeyer), selecting for 30 days, and assessing Bcl-2 expression by immunoblotting. HIV-uninfected PBMCs were harvested by ficoll gradient centrifugation from Leukocyte Reduction System apheresis chambers provided by healthy volunteer blood donors. […]
(§2) Immunophenotyping of T cell subsets was performed using multicolor flow cytometry with monoclonal antibodies to human CD3 (Alexa700, BD Pharmingen), CD4 (FITC, BD Pharmingen), CD8 (Pacific Blue, BD Pharmingen), CD27 (PE, BD Pharmingen), and CD45RO (ECD, Beckman Coulter). […] Intracellular expression of Casp8p41 was assessed as described elsewhere (Cummins et al., AIDS Res. Hum. Retroviruses, 30:476-479 (2014)). Cell death was measured using LIVE/DEAD® Fixable Aqua dead cell stain (Invitrogen) or TUNEL (Roche) according to manufacturers' protocols. Cell proliferation was measured using a CellTrace™ CFSE Cell Proliferation Kit (Life Technologies) according to manufacturer's protocol. […] FACS data were analyzed using FlowJo software (Tree Star Inc).

HIV-1IIIb = test: Acute HIVIIIb infection of primary CD4 T cells in vitro (viability, p24, cell associated HIV DNA); type: cell-based
Excerpt: as §1
as §2, with “Inc). […]” for “Inc).”

[5] = in vivo; cited from earlier work
[6] = test system: Primary CD4 T cells from uninfected donors; test: Mitogen-induced proliferation of uninfected CD4 T cells by CFSE staining; type: cell-based, human; details: phytohemagglutinin, 1 μM, Day 3
Excerpt: as §1, §2

[7] = test system: latently HIV infected CD4 T cells; test: Ex vivo HIV reactivation (αCD3/αCD28) in CD4 T cells from suppressed HIV-infected patients; type: cell-based, human
Procedure: FIGS. 10A-10E. Selective Bcl-2 inhibition reduces HIV DNA associated with cells after viral reactivation ex vivo. […] After 72 hours, cell associated HIV DNA was measured. FIG. 10B, Freshly obtained peripheral CD4 T cells from an additional 16 suppressed HIV-infected patients were treated with ABT-199 or DMSO followed by αCD3/αCD28 for 72 hours before cell associated HIV DNA was measured. Depicted is the ratio of HIV DNA in ABT-199 treated vs. diluent treated samples for each patient with measurable HIV DNA in the diluent sample (n=11). FIG. 10C, Primary CD4 T cells from HIV-infected subjects were treated with ABT-199 or diluent and assayed for intracellular Casp8p41 and active caspase 3 in the TCM subset. Representative data of three independent subjects. FIG. 10D, Primary CD4 T cells from four HIV-infected subjects were treated with venetoclax or diluent and induced to reactivate HIV using CD3/CD28, and cell death measured in HIV P24 positive or negative cells using activated caspase 3 staining. FIG. 10E, HIV RNA was measured in cell culture supernatant from 6 of the 11 patient experiments from FIG. 10B.
Jurkat and Jurkat/Bcl-2 cells were infected overnight, while primary PHA-activated CD4 T cells were infected for 6 hours with HIV-1IIIb (NIH AIDS Reagent Program). Aliquots of the same infectious supernatant were used for all experiments. Cells were then washed three times and incubated in fresh medium. At the indicated time points, HIV-1 p24 in the cell culture supernatant was measured by RETROTEK™ ELISA kits (Zeptometrix Corporation) according to manufacturer's protocol. […] Briefly, total DNA was extracted using the Qiagen DNeasy Blood and Tissue kit (Hilden, Germany) and analyzed by a real-time polymerase chain reaction (PCR) assay specific for HIV-LTR and β-globin. […] Total HIV-1 DNA was compared and normalized with genomic DNA, determined by β-globin. HIV-1 proviral DNA levels were expressed as HIV-1 copies/β-globin genomic equivalent of 10^6 cells.

Bcl-2 = test: SPR binding of Casp8p41 to purified recombinant Bcl-2; details: Bcl-2 Arg146Ala vs Bcl-2, SPR
Procedure: After plasmids encoding GST tagged proteins were transformed into E. coli BL21 or DH5α by heat shock, bacteria were grown to an optical density of 0.8 and induced with 1 mM IPTG for 3 hours at 37° C. Bacteria were disrupted by freezing and thawing in calcium- and magnesium-free Dulbecco's phosphate buffered saline (PBS) containing 0.1% Triton X-100, 2 μg/mL aprotinin, 10 μg/mL leupeptin, 2 μg/mL pepstatin, and 1 mM PMSF, then sonicated three times for 15 sec/min on ice. GST-tagged proteins were purified with glutathione-agarose (Thermo Fisher Scientific, Rockford, Ill.).
Proteins for SPR were further purified by FPLC on Superdex 5200, concentrated in a centrifugal concentrator (Centricon, Millipore), dialyzed against Biacore buffer (10 mM HEPES (pH 7.4), 150 mM NaCl, 0.05 mM EDTA, and 0.005% (w/v) Polysorbate 20) and stored at 4° C. for <48 hours before use. Binding assays were performed at 25° C. on a Biacore 3000 biosensor after proteins were immobilized on a CMS chip (GE Healthcare). Ligands were injected at 30 μL/minute for 1 minute in Biacore buffer. Bound protein was allowed to dissociate in Biacore buffer at 30 μL/minute for 10 minutes and then desorbed with 2 M MgCl2. Binding kinetics were derived using BIA evaluation software (Biacore, Uppsala, Sweden).

CC[C@@]1(O)C(=O)OCc2c1cc1n(c2=O)Cc2cc3ccccc3nc2-1 [CPT, camptothecin]
eGFP negative cells ([1]; by 48 hours): 97%
cell viability by cellular ATP content and light scatter ([1]; compared to diluent-treated cells): decreased cell viability
reduction of detectable actin message compared to diluent control ([1]; qRT-PCR): 34%
detectable eGFP (eGFP+ cells) ([1]; {}): 17 % eGFP+

CC1(C)CCC(CN2CCN(c3ccc(C(=O)NS(=O)(=O)c4ccc(NCC5CCOCC5)c([N+](=O)[O-])c4)c(Oc4cnc5[nH]ccc5c4)c3)CC2)=C(c2ccc(Cl)cc2)C1 [venetoclax]
cases of dose limiting neutropenia ([2]; 40 NHL patients receiving monotherapy): 2 cases
tolerability in early phase clinical trials ([2]; human, in vivo): well tolerated
viability, mean difference vs DMSO control [3]: −4.7±1.6 % viable
increase in cell death, mean difference vs diluent (Jurkat T cells): 25.7±10.3%
viability, mean difference vs control treated cells [4]: −7.2±4.8%
survival or mitogen-induced proliferation of mock-infected CD4 T cells (HIV-1IIIb): had no effect
peak plasma levels [5]: up to 5 μM
mean difference in percent CFSE low cells [6]: -1.1±7.9%
samples exhibiting a decrease of cell associated HIV DNA ([7]; freshly isolated primary CD4 T cell samples, 8 of 11): 73%
median cell death (active caspase 3) in p24− cells ([7]; αCD3/αCD28 reactivated, control 2.5%, P=0.189): 10.3%
proportion of HIV p24+ CD4+ cells that are active caspase 3+ ([7]; αCD3/αCD28 reactivated, control 23%, P=0.026): 47 % active caspase 3+

DMNLLDIFIEMEKRVILGEGKLDILKRVCAQ (Casp8p41 BH3-like peptide) [Casp8p41 activator peptide]
decrease of affinity of Bcl-2 by substitution of Ala for Bcl-2 Arg146 (Bcl-2): 250 fold
